target: T1, Recombinant maltose-binding protein-human aspartate N-acetyltransferase (MBP-ANAT) fusion enzyme (Homo sapiens, UniProt Q8N9F0); test: ANAT activity, DTNB-based assay (inhibitor screening and kinetic evaluation); format: biochemical; details: not given
T1 construct: His tag (C); made in house; host or cells: E. coli NiCo21(DE3)
T1 sequence (Q8N9F0 1-302): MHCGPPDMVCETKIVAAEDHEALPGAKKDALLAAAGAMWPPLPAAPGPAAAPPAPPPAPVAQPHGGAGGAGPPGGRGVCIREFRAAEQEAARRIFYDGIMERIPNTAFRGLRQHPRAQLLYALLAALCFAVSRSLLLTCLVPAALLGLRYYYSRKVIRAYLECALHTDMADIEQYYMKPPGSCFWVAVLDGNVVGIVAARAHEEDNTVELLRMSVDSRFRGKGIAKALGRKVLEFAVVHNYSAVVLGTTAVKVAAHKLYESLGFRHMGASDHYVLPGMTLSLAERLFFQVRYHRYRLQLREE
Text: ANAT is difficult to purify. […] This can be accomplished, for example, as described in U.S. Provisional Patent Application No. 62/216,700, which is incorporated herein by reference for all purposes. […] An optimized thiol detection assay can be used to kinetically characterize this newly produced enzyme form.
Recombinant maltose-binding protein-human aspartate N-acetyltransferase (MBP-ANAT) fusion enzyme was expressed and purified as described in U.S. Provisional Patent Application No. 62/216,700. Briefly, NiCo21(DE3) competent E. coli cells (New England Biolabs, Ipswich, Mass.) were transformed with an MBP-ANAT-his construct and selected on LB plates with 30 μg/ml kanamycin. Colonies from these plates were used to inoculate starter cultures in LB media. After diluting each starter culture by 100-fold in 1 L of LB media, cell growth was continued for about 2 hours at 37° C. until A600 reached 0.6. IPTG was then added to a final concentration of 0.5 mM, and protein expression was induced at 16° C. for 20 hours. To purify MBP-ANAT, a Ni Sepharose 6 Fast Flow column (GE healthcare, Pittsburgh, Pa.) was equilibrated with Buffer A (20 mM potassium phosphate, pH 7.4, 300 mM sodium chloride, 10% glycerol, and 20 mM imidazole). Cell lysate was loaded on to the column and partially purified ANAT was then eluted with a linear gradient of Buffer B (buffer A containing 400 mM imidazole). The active fractions were pooled and loaded onto an amylose column and highly purified ANAT fusion was then obtained by elution with a 0-10 mM linear maltose gradient. ANAT activity was measured by an established DTNB-based assay using a SpectraMax 190 spectrophotometer plate reader (Molecular Devices, Calif.). A typical activity assay contained 20 mM HEPES, pH 7.4, 150 mM NaCl, 5% glycerol, 40 μM DTNB, 40 μM acetyl-CoA, and 2 mM L-aspartate in a total volume of 200 μl. Reaction was monitored at 412 nm (ε=14.15 mM^−1 cm^−1) for at least 15 minutes.
Three different compound libraries were used for initial screening of ANAT inhibitors. These small compound libraries were assembled in-house: an amino acids library contained 96 compounds, a metabolite library contained 96 compounds, and a second amino acids library contained 64 compounds. An additional constrained analogs library contained 77 compounds that were purchased from commercial sources.

Compound	ANAT inhibitor potency (in words)
NC(=O)[C@@H](N)CC(=O)O [L-aspartic acid amide]	neither alternative substrates nor inhibitors
O=C(O)C[C@H](NC(=O)OCc1ccccc1)C(=O)O [N-[(benzyloxy)carbonyl]-L-aspartic acid]	surprisingly high potency

same assay, conditions: read-out: inhibition constant against ANAT

Compound	Ki [mM]
O=C(O)C[C@H](NC(=O)c1ccccc1)C(=O)O [comparable L-aspartate derivative, sodium N-benzoyl-L-aspartate]	> 2
O=C1CC[C@H](C(=O)O)N1 [2-D-pyroglutamic acid]	> 2

The remaining lines, values ahead:

Ki [mM]	Compound
> 2	O=C(O)c1cc(-c2ccccc2F)no1 [3-(2-fluoro-phenyl)-isoxazole-5-carboxylic acid]
0.13	O=C(O)CC[C@H](NC(=O)c1ccccc1)C(=O)O [N-benzoyl-L-glutamate]
> 2	Cc1noc(-c2cccc(C(=O)O)c2)n1 [3-(3-methyl-1,2,4-oxadiazol-5-yl-benzoic acid]

Reference: patent US11186541B2, “Potent inhibitors of aspartate N-acetyl-transferase for the treatment of Canavan disease” (The University of Toledo, priority 2016, dated 2021)
